Experimental data taken from patent US11434242B2, “Dopamine-b-hydroxylase inhibitors” (BIAL-PORTELA & Cª, S.A., priority 2017, dated 2022).
Marks after values point to notes of the source that are not given here.

Molecular target: T1, Dopamine beta hydroxylase (Homo sapiens, UniProt P09172)
T1 construct: 125 μl of plasma; tissue Instituto Português do Sangue Transplantação; host or cells: human plasma from healthy donors
T1 sequence (P09172 40-617 limits assumed): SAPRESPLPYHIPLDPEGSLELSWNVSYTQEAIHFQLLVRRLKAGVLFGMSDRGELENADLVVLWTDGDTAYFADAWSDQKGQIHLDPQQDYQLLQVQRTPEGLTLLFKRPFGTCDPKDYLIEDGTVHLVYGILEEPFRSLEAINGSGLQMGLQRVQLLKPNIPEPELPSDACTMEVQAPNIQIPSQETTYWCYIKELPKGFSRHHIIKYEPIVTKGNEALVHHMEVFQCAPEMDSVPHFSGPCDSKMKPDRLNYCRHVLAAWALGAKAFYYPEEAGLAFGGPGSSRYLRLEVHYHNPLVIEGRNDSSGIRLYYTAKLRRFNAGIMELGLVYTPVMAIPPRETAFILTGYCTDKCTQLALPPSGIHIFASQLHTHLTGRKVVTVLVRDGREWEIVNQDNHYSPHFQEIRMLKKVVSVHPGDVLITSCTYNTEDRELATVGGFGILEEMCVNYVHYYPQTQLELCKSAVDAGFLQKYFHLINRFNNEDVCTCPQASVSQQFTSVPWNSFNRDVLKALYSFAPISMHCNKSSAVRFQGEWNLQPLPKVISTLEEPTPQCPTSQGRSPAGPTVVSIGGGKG
Test: Dopamine beta hydroxylase activity in human plasma
Type: biochemical
Settings: for Plasma (1 μM), activity in % of control: inhibitor 1 μM
Outline: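 Octopamine production from tyramine over 45 min at 37° C, measured photometrically at 330 nm after SCX extraction and periodate oxidation against an octopamine standard curve, indicates plasma DβH activity. Compounds tested at final 10, 100 and 1000 nM in human plasma, pH 5.0 cofactor buffer, 10 min preincubation; results as % of control.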

SMILES	Plasma (0.01 μM), activity in % of control (inhibitor 0.01 μM)	Plasma (0.1 μM), activity in % of control (inhibitor 0.1 μM)	Plasma (1 μM), activity in % of control	Plasma (0.01 μM), activity in % of control, re-test (asterisked) (inhibitor 0.01 μM, re-tested under the same experimental conditions, asterisked data believed to be correct)	Plasma (0.1 μM), activity in % of control, re-test (asterisked) (inhibitor 0.1 μM, re-tested under the same experimental conditions, asterisked data believed to be correct)
F.Fc1ccc(Br)cc1[C@]12C[C@H]1c1c(CCNc3ccccn3)[nH]c(=S)n1C2 [Example 192, (5aS,6aR)-5a-(5-bromo-2-fluorophenyl)-1-(2-(pyridin-2-ylamino)ethyl)-5,5a,6,6a-tetrahydrocyclopropa[3,4]pyrrolo[1,2-c]imidazole-3(2H)-thione hydrofluoride]	73.4 % of control	12.1 % of control	–	–	–
O=C(Cc1[nH]c(=S)n2c1C[C@H](c1c(F)c(F)cc(F)c1F)C2)N1CCC[C@H]1CO [Example 98, 1-((S)-2-(hydroxymethyl)pyrrolidin-1-yl)-2-((R)-6-(2,3,5,6-tetrafluorophenyl)-3-thioxo-2,5,6,7-tetrahydro-3H-pyrrolo[1,2-c]imidazol-1-yl)ethan-1-one]	–	53.1 % of control	11.7 % of control	–	–
CN(C)C(=O)C1CCN(C(=O)Cc2c3n(c(=S)n2C)C[C@H](c2c(F)ccc(Br)c2F)C3)CC1 [Example 452, (S)-1-(2-(6-(3-bromo-2,6-difluorophenyl)-2-methyl-3-thioxo-2,5,6,7-tetrahydro-3H-pyrrolo[1,2-c]imidazol-1-yl)acetyl)-N,N-dimethylpiperidine-4-carboxamide]	49.6 % of control	12.8 % of control	–	–	–
Cn1c(CC(N)=O)c2n(c1=S)C[C@H](c1c(F)ccc(Cl)c1F)C2 [Example 249, (S)-2-(6-(3-chloro-2,6-difluorophenyl)-2-methyl-3-thioxo-2,5,6,7-tetrahydro-3H-pyrrolo[1,2-c]imidazol-1-yl)acetamide]	96.0 % of control	40.9 % of control	–	–	–
Cc1nnc(NC(=O)Cc2c3n(c(=S)n2C)C[C@H](c2c(F)ccc(Cl)c2F)C3)o1 [Example 349, (S)-2-(6-(3-chloro-2,6-difluorophenyl)-2-methyl-3-thioxo-2,5,6,7-tetrahydro-3H-pyrrolo[1,2-c]imidazol-1-yl)-N-(5-methyl-1,3,4-oxadiazol-2-yl)acetamide]	72.3 % of control	12.5 % of control	–	–	–
Cn1c(CC(=O)Nc2ncco2)c2n(c1=S)C[C@@H](c1c(F)c(F)cc(F)c1F)C2 [Example 316, (R)-2-(2-methyl-3-thioxo-6-(2,3,5,6-tetrafluorophenyl)-2,5,6,7-tetrahydro-3H-pyrrolo[1,2-c]imidazol-1-yl)-N-(oxazol-2-yl)acetamide]	43.4 % of control	4.5 % of control	–	73.1* % of control	16.6* % of control
O=C(O)Cc1[nH]c(=S)n2c1[C@@H]1C[C@]1(c1cc(Br)ccc1F)C2 [Example 361, 2-((5aS,6aR)-5a-(5-bromo-2-fluorophenyl)-3-thioxo-2,3,5,5a,6,6a-hexahydrocyclopropa[3,4]pyrrolo[1,2-c]imidazol-1-yl)acetic Acid]	60.0 % of control	10.4 % of control	–	–	–
CCOC(=O)Cc1[nH]c(=S)n2c1C[C@H](c1c(F)ccc(Br)c1F)C2 [Example 60, Ethyl (R)-2-(6-(3-bromo-2,6-difluorophenyl)-3-thioxo-2,5,6,7-tetrahydro-3H-pyrrolo[1,2-c]imidazol-1-yl)acetate]	–	68.9 % of control	14.0 % of control	–	–
O=C(NCc1[nH]c(=S)n2c1C[C@@H](c1c(F)ccc(Cl)c1F)C2)C1CCCC1 [Example 221, (S)—N-((6-(3-chloro-2,6-difluorophenyl)-3-thioxo-2,5,6,7-tetrahydro-3H-pyrrolo[1,2-c]imidazol-1-yl)methyl)cyclopentanecarboxamide]	79.3 % of control	30.0 % of control	–	–	–
Cn1c(CCC(=O)N2CC3C(C2)C3(C)C)c2n(c1=S)C[C@@H](c1c(F)c(F)cc(F)c1F)C2 (stereo partly drawn) [Example 319, 1-(6,6-dimethyl-3-azabicyclo[3.1.0]hexan-3-yl)-3-((R)-2-methyl-6-(2,3,5,6-tetrafluorophenyl)-3-thioxo-2,5,6,7-tetrahydro-3H-pyrrolo[1,2-c]imidazol-1-yl)propan-1-one]	67.9 % of control	16.5 % of control	–	–	–
O=C(Cc1[nH]c(=S)n2c1[C@@H]1C[C@]1(c1cc(Br)ccc1F)C2)Nc1ccccn1 [Example 170, 2-((5aS,6aR)-5a-(5-bromo-2-fluorophenyl)-3-thioxo-2,3,5,5a,6,6a-hexahydrocyclopropa[3,4]pyrrolo[1,2-c]imidazol-1-yl)-N-(pyridin-2-yl)acetamide]	64.9 % of control	2.0 % of control	–	–	–
O=C(Cc1[nH]c(=S)n2c1C[C@@H](c1c(F)ccc(Br)c1F)C2)N1CCS(=O)(=O)CC1 [Example 136, (S)-2-(6-(3-bromo-2,6-difluorophenyl)-3-thioxo-2,5,6,7-tetrahydro-3H-pyrrolo[1,2-c]imidazol-1-yl)-1-(1,1-dioxidothiomorpholino)ethan-1-one]	44.3 % of control	6.8 % of control	–	–	–
O=C(Cc1[nH]c(=S)n2c1C[C@H](c1c(F)ccc(Br)c1F)C2)NCc1ccccn1 [Example 139, (R)-2-(6-(3-bromo-2,6-difluorophenyl)-3-thioxo-2,5,6,7-tetrahydro-3H-pyrrolo[1,2-c]imidazol-1-yl)-N-(pyridin-2-ylmethyl)acetamide]	77.8 % of control	20.8 % of control	–	–	–
CN(C(=O)Cc1c2n(c(=S)n1C)C[C@H](c1c(F)ccc(Br)c1F)C2)C1COC1 [Example 454, (S)-2-(6-(3-bromo-2,6-difluorophenyl)-2-methyl-3-thioxo-2,5,6,7-tetrahydro-3H-pyrrolo[1,2-c]imidazol-1-yl)-N-methyl-N-(oxetan-3-yl)acetamide]	56.8 % of control	8.1 % of control	–	–	–
Cl.Cn1cc(CNCCc2c3n(c(=S)n2C)C[C@@]2(c4cc(Cl)ccc4F)C[C@@H]32)cn1 [Example 346, (5aS,6aR)-5a-(5-chloro-2-fluorophenyl)-2-methyl-1-(2-(((1-methyl-1H-pyrazol-4-yl)methyl)amino)ethyl)-5,5a,6,6a-tetrahydrocyclopropa[3,4]pyrrolo[1,2-c]imidazole-3(2H)-thione Hydrochloride]	109.6 % of control	74.9 % of control	–	–	–
O=C(Cc1[nH]c(=S)n2c1[C@@H]1C[C@]1(c1cc(Cl)ccc1F)C2)N1CCCCC1 [Example 158, 2-((5aS,6aR)-5a-(5-chloro-2-fluorophenyl)-3-thioxo-2,3,5,5a,6,6a-hexahydrocyclopropa[3,4]pyrrolo[1,2-c]imidazol-1-yl)-1-(piperidin-1-yl)ethan-1-one]	90.9 % of control	52.1 % of control	–	–	–
CS(=O)(=O)C1CCN(C(=O)Cc2[nH]c(=S)n3c2C[C@H](c2c(F)ccc(Br)c2F)C3)C1 (stereo partly drawn) [Example 135, 2-((R)-6-(3-bromo-2,6-difluorophenyl)-3-thioxo-2,5,6,7-tetrahydro-3H-pyrrolo[1,2-c]imidazol-1-yl)-1-(3-(methylsulfonyl)pyrrolidin-1-yl)ethan-1-one]	88.3 % of control	58.1 % of control	–	–	–
Cn1c(CC(=O)N[C@@H]2CCCOC2)c2n(c1=S)C[C@@]1(c3c(F)ccc(Cl)c3F)C[C@@H]21 [Example 415, 2-((5aS,6aR)-5a-(3-chloro-2,6-difluorophenyl)-2-methyl-3-thioxo-2,3,5,5a,6,6a-hexahydrocyclopropa[3,4]pyrrolo[1,2-c]imidazol-1-yl)-N—((R)-tetrahydro-2H-pyran-3-yl)acetamide]	14.9 % of control	2.1 % of control	–	–	–
CN(C(=O)Cc1[nH]c(=S)n2c1C[C@H](c1c(F)ccc(F)c1F)C2)C1CCOCC1 [Example 379, (R)—N-methyl-2-(6-(2,3,6-trifluorophenyl)-3-thioxo-2,5,6,7-tetrahydro-3H-pyrrolo[1,2-c]imidazol-1-yl)-N-(tetrahydro-2H-pyran-4-yl)acetamide]	108.7 % of control	50.1 % of control	–	–	–
Cn1c(CCC(=O)N[C@@H]2CCCOC2)c2n(c1=S)C[C@@H](c1c(F)ccc(F)c1F)C2 [Example 288, 3-((R)-2-methyl-3-thioxo-6-(2,3,6-trifluorophenyl)-2,5,6,7-tetrahydro-3H-pyrrolo[1,2-c]imidazol-1-yl)-N—((R)-tetrahydro-2H-pyran-3-yl)propanamide]	82.0 % of control	81.1 % of control	–	–	–
